Test results published in US20260317324A1, “BIFUNCTIONAL COMPOUNDS FOR DEGRADING BRAF VIA UBIQUITIN PROTEOSOME PATHWAY” (Nurix Therapeutics, Inc., priority 2023, published 2026).

How the values were obtained:
Assay type in all cases: cell-based
BRAF G469A = biological target: T1, BRAF G469A (Homo sapiens, UniProt P15056, G469A); experiment: BRAF HiBiT degradation assay, C-terminal HiBiT-tagged BRAF G469A overexpressed in HCT-116 BRAF−/− cells (clone 34), Nano-Glo HiBiT Lytic assay
T1 construct: Horizon Discovery (HCT-116 BRAF−/− cells); host or cells: HCT-116 BRAF−/− cells, clone 34, lentiviral transduction
T1 sequence (P15056 whole entry G469A): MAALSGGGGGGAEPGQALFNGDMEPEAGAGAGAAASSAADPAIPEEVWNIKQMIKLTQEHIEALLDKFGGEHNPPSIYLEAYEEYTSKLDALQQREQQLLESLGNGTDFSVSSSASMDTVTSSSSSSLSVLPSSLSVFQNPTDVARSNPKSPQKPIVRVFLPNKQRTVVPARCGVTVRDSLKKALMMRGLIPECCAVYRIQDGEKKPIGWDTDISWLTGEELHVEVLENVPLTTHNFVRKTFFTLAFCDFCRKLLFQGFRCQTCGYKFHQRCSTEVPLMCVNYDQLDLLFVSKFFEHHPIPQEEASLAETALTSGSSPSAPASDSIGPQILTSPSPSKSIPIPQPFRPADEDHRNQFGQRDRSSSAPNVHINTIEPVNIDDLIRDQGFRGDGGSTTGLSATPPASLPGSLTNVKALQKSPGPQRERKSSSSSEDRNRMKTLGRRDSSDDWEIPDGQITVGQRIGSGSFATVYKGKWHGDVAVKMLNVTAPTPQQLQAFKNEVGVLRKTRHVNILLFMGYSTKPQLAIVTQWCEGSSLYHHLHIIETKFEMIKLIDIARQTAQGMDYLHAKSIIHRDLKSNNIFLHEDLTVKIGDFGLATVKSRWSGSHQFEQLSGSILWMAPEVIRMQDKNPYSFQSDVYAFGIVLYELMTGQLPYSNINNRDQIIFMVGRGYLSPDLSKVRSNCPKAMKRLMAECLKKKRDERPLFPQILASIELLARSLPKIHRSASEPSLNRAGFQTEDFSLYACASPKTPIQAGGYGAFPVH
In short: (§1)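 We quantified degradation of the C-terminally HiBiT-tagged, overexpressed mutant by lytic luminescence, normalizing to DMSO-treated cells with wild-type HCT-116 background subtracted. Dose series ran from 1 μM to 0.01 nM at 0.2% DMSO. Observed Dmax is % degraded at maximal effect.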

BRAF V600E = biological target: T2, BRAF V600E (Homo sapiens, UniProt P15056, V600E); experiment: BRAF HiBiT degradation assay, C-terminal HiBiT-tagged BRAF V600E A375 cells (clone 1F10), Nano-Glo HiBiT Lytic assay; conditions: for Dmax: A-375
T2 construct: endogenous C-terminal HiBiT fusion tag on BRAF V600E allele; endogenous in cells; host or cells: A375 clone 1F10 (CRISPR-Cas9 knock-in of the HiBiT tag; parental A375 from ATCC)
T2 sequence (P15056 whole entry V600E, the tested form may be a part): as the sequence (P15056 whole entry G469A) above, with A469G, V600E counted along it
In short: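 Steps: seed HiBiT-tagged A375 clone 1F10 cells; incubate 24 h, 37 °C, 5% CO2; add compound (11 half-log points from 1 μM, 0.2% DMSO); lyse with HiBiT detection reagent plus LgBiT for 10 min; read luminescence; fit % protein remaining against concentration.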

BRAF G466V = biological target: T3, BRAF G466V (Homo sapiens, UniProt P15056, G466V); experiment: BRAF HiBiT degradation assay, C-terminal HiBiT-tagged BRAF G466V overexpressed in HCT-116 BRAF−/− cells (clone 8), Nano-Glo HiBiT Lytic assay
T3 construct: Horizon Discovery (HCT-116 BRAF−/− cells); host or cells: HCT-116 BRAF−/− cells, clone 8, lentiviral transduction
T3 sequence (P15056 whole entry G466V): as the sequence (P15056 whole entry G469A) above, with G466V, A469G counted along it
In short: as §1

BRAF D594G = biological target: T4, BRAF D594G (Homo sapiens, UniProt P15056, D594G); experiment: BRAF HiBiT degradation assay, C-terminal HiBiT-tagged BRAF D594G overexpressed in HCT-116 BRAF−/− cells (clone 63), Nano-Glo HiBiT Lytic assay
T4 construct: Horizon Discovery (HCT-116 BRAF−/− cells); host or cells: HCT-116 BRAF−/− cells, clone 63, lentiviral transduction
T4 sequence (P15056 whole entry D594G): as the sequence (P15056 whole entry G469A) above, with A469G, D594G counted along it
In short: as §1

[1] = Class 2, BRAF G469A, DC50 at 50%: fitted conc. at Y=50
[2] = HCT-116, Class 2, BRAF G469A, percentage protein degraded at maximal compound effect relative to DMSO
[3] = A375 (BRAF V600E), DC50 at 50%: fitted conc. at Y=50
[4] = A375 (BRAF V600E), percentage protein degraded at maximal compound effect relative to DMSO
[5] = BRAF G466V, DC50 at 50%: fitted conc. at Y=50
[6] = HCT-116, BRAF G466V, percentage protein degraded at maximal compound effect relative to DMSO
[7] = BRAF D594G, DC50 at 50%: fitted conc. at Y=50
[8] = HCT-116, BRAF D594G, percentage protein degraded at maximal compound effect relative to DMSO
[9] = BRAF G469A (Class 2), HCT-116 BRAF−/− cells, DC50 at 50% degradation
[10] = BRAF G469A (Class 2), HCT-116 BRAF−/− cells, observed Dmax relative to DMSO control
[11] = A375 (BRAF V600E, Class 1), DC50 at 50% degradation
[12] = A375 (BRAF V600E, Class 1), observed Dmax, % protein degraded relative to DMSO control
[13] = BRAF G466V (Class 3), HCT-116 BRAF−/− cells, DC50 at 50% degradation
[14] = BRAF G466V (Class 3), HCT-116 BRAF−/− cells, observed Dmax relative to DMSO control
[15] = BRAF D594G (Class 3), HCT-116 BRAF−/− cells, DC50 at 50% degradation
[16] = BRAF D594G (Class 3), HCT-116 BRAF−/− cells, observed Dmax relative to DMSO control

| DC50 (BRAF G469A; [1]) | Dmax (BRAF G469A; [2]) | DC50 (BRAF V600E; [3]) | Dmax (BRAF V600E; [4]) | DC50 (BRAF G466V; [5]) | Dmax (BRAF G466V; [6]) | DC50 (BRAF D594G; [7]) | Dmax (BRAF D594G; [8]) | DC50 (BRAF G469A; [9]) | Dmax (BRAF G469A; [10]) | DC50 (BRAF V600E; [11]) | Dmax (BRAF V600E; [12]) | DC50 (BRAF G466V; [13]) | Dmax (BRAF G466V; [14]) | DC50 (BRAF D594G; [15]) | Dmax (BRAF D594G; [16]) | Compound |
| --- | --- | --- | --- | --- | --- | --- | --- | --- | --- | --- | --- | --- | --- | --- | --- | --- |
| > 500 nM | 30 to 70% | < 10 nM | > 70% | < 10 nM | 30 to 70% | < 10 nM | 30 to 70% | – | – | – | – | – | – | – | – | CCN(C)S(=O)(=O)Nc1cccc(-c2nc(C3CCN(C(=O)C4CCN(C(=O)C5CCN(c6ccc(C7CCC(=O)NC7=O)cn6)CC5)CC4)CC3)sc2-c2ccnc(NC(C)C)n2)c1F (racemic) [Compound 183, Rac-(3S)-3-{6-[4-(4-{4-[4-(3-{[ethyl(methyl)sulfamoyl]amino}-2-fluorophenyl)-5-{2-[(propan-2-yl)amino]pyrimidin-4-yl}-1,3-thiazol-2-yl]piperidine-1-carbonyl}piperidine-1-carbonyl)piperidin-1-yl]pyridin-3-yl}piperidine-2,6-dione] |
| > 500 nM | < 30% | 10 to 50 nM | > 70% | > 500 nM | < 30% | > 500 nM | < 30% | – | – | – | – | – | – | – | – | CCCS(=O)(=O)Nc1cccc(-c2nc(C(C)(C)C)sc2-c2ccnc(Nc3ccc(C4CCN(C(=O)CN5CCN(c6cc(C7CCC(=O)NC7=O)ccn6)CC5)CC4)cc3)n2)c1F (racemic) [Compound 174, Rac-N-[3-(2-tert-butyl-5-{2-[(4-{1-[2-(4-{4-[(3R)-2,6-dioxopiperidin-3-yl]pyridin-2-yl}piperazin-1-yl)acetyl]piperidin-4-yl}phenyl)amino]pyrimidin-4-yl}-1,3-thiazol-4-yl)-2-fluorophenyl]propane-1-sulfonamide] |
| > 500 nM | < 30% | < 10 nM | > 70% | 10 to 50 nM | 30 to 70% | < 10 nM | 30 to 70% | – | – | – | – | – | – | – | – | CCCS(=O)(=O)Nc1cccc(-c2nc(C3CCC4(CC3)CN(C(=O)CCCCCc3ccc5c(c3)C(=O)N(C3CCC(=O)NC3=O)C5)C4)sc2-c2ccnc(N)n2)c1F (racemic) [Compound 234, Rac-N-{3-[5-(2-aminopyrimidin-4-yl)-2-[2-(6-{2-[(3R)-2,6-dioxopiperidin-3-yl]-3-oxo-2,3-dihydro-1H-isoindol-5-yl}hexanoyl)-2-azaspiro[3.5]nonan-7-yl]-1,3-thiazol-4-yl]-2-fluorophenyl}propane-1-sulfonamide] |
| – | – | – | – | – | – | – | – | 10 to 50 nM | > 70% | < 10 nM | > 70% | < 10 nM | > 70% | < 10 nM | > 70% | O=C1CC[C@H](c2ccc(N3CCC(CN4CCN(c5ccc(-n6cc(-c7cc(Cl)cc(NS(=O)(=O)N8CC[C@@H](F)C8)c7F)c(-c7ccncc7)n6)c(F)c5)CC4)CC3)cc2)C(=O)N1 [Compound 336, (3R)—N-{5-chloro-3-[1-(4-{4-[(1-{4-[(3R)-2,6-dioxopiperidin-3-yl]phenyl}piperidin-4-yl)methyl]piperazin-1-yl}-2-fluorophenyl)-3-(pyridin-4-yl)-1H-pyrazol-4-yl]-2-fluorophenyl}-3-fluoropyrrolidine-1-sulfonamide] |
| > 500 nM | < 30% | 10 to 50 nM | 30 to 70% | > 500 nM | 30 to 70% | > 500 nM | 30 to 70% | – | – | – | – | – | – | – | – | CCCS(=O)(=O)Nc1cccc(-c2nc(C(C)(C)C)sc2-c2ccnc(Nc3ccc4c(c3)CCN(CC3CCN(c5ccc6c(=O)n(C7CCC(=O)NC7=O)ccc6c5)CC3)C4)n2)c1F (racemic) [Compound 85, Rac-N-(3-{2-tert-butyl-5-[2-({2-[(1-{2-[(3R)-2,6-dioxopiperidin-3-yl]-1-oxo-1,2-dihydroisoquinolin-6-yl}piperidin-4-yl)methyl]-1,2,3,4-tetrahydroisoquinolin-6-yl}amino)pyrimidin-4-yl]-1,3-thiazol-4-yl}-2-fluorophenyl)propane-1-sulfonamide] |
| – | – | – | – | – | – | – | – | < 10 nM | 30 to 70% | < 10 nM | > 70% | < 10 nM | > 70% | < 10 nM | > 70% | CCN(C)S(=O)(=O)Nc1cc(Cl)cc(-c2cn(-c3ccc(N4CCN(CC5CCN(c6ccc(C7CCC(=O)NC7=O)cn6)CC5)CC4)cn3)nc2-c2ccncc2)c1F (racemic) [Compound 312, Rac-(3R)-3-(6-{4-[(4-{6-[4-(5-chloro-3-{[ethyl(methyl)sulfamoyl]amino}-2-fluorophenyl)-3-(pyridin-4-yl)-1H-pyrazol-1-yl]pyridin-3-yl}piperazin-1-yl)methyl]piperidin-1-yl}pyridin-3-yl)piperidine-2,6-dione] |
| – | – | – | – | – | – | – | – | > 500 nM | < 30% | 10 to 50 nM | > 70% | > 500 nM | 30 to 70% | > 500 nM | < 30% | CCCS(=O)(=O)Nc1cc(Cl)cc(-c2cn(-c3ccc(N4CCN(CC5CCN(c6ccc(N7CCC(=O)NC7=O)cc6)CC5)[C@@H](C)C4)cc3)nc2-c2ccncc2)c1F [Compound 280, N-[5-chloro-3-(1-{4-[(3S)-4-({1-[4-(2,4-dioxo-1,3-diazinan-1-yl)phenyl]piperidin-4-yl}methyl)-3-methylpiperazin-1-yl]phenyl}-3-(pyridin-4-yl)-1H-pyrazol-4-yl)-2-fluorophenyl]propane-1-sulfonamide] |
| > 500 nM | < 30% | 50 to 500 nM | 30 to 70% | > 500 nM | < 30% | > 500 nM | 30 to 70% | – | – | – | – | – | – | – | – | CCCS(=O)(=O)Nc1cccc(-c2nc(C(C)(C)C)sc2-c2ccnc(Nc3cccc(OC4CCN(CC[C@@H]5CCN(c6ccc(C7CCC(=O)NC7=O)cn6)C5)CC4)c3)n2)c1F (mixture of isomers) [Compound 70, N-(3-{2-tert-butyl-5-[2-({3-[(1-{2-[(3R)-1-{5-[(3RS)-2,6-dioxopiperidin-3-yl]pyridin-2-yl}pyrrolidin-3-yl]ethyl}piperidin-4-yl)oxy]phenyl}amino)pyrimidin-4-yl]-1,3-thiazol-4-yl}-2-fluorophenyl)propane-1-sulfonamide] |
| > 500 nM | 30 to 70% | 10 to 50 nM | > 70% | 10 to 50 nM | 30 to 70% | > 500 nM | 30 to 70% | – | – | – | – | – | – | – | – | CCCS(=O)(=O)Nc1cccc(-c2cn(-c3ccc(N4CCN(CC5CCN(c6ccc(C7CCC(=O)NC7=O)cc6)CC5)CC4)cc3)nc2-c2ccncc2)c1F (racemic) [Compound 21, Rac-N-{3-[1-(4-{4-[(1-{4-[(3R)-2,6-dioxopiperidin-3-yl]phenyl}piperidin-4-yl)methyl]piperazin-1-yl}phenyl)-3-(pyridin-4-yl)-1H-pyrazol-4-yl]-2-fluorophenyl}propane-1-sulfonamide] |
| > 500 nM | < 30% | 10 to 50 nM | > 70% | > 500 nM | < 30% | > 500 nM | < 30% | – | – | – | – | – | – | – | – | CCCS(=O)(=O)Nc1cccc(-c2nc(C(C)(C)C)sc2-c2ccnc(NC3CC4(C3)CN(C(=O)C3(F)CCN(CC5CCN(c6ccc(C7CCC(=O)NC7=O)cc6)CC5)CC3)C4)n2)c1F (racemic) [Compound 141, Rac-N-[3-(2-tert-butyl-5-{2-[(2-{1-[(1-{4-[(3R)-2,6-dioxopiperidin-3-yl]phenyl}piperidin-4-yl)methyl]-4-fluoropiperidine-4-carbonyl}-2-azaspiro[3.3]heptan-6-yl)amino]pyrimidin-4-yl}-1,3-thiazol-4-yl)-2-fluorophenyl]propane-1-sulfonamide] |
